Values belong to the molecule of their own block, whether it stands above or below them.
Legend:
PF4 = target: T1, PF4 (Homo sapiens, UniProt P02776); experiment: DT40 cell (FcγRIIA + NFAT-Luc reporter) activation assay: inhibition by PF4 antagonists; assay type: cell-based; details: for IC50: PF4 10 μg/mL, heparin 0.3 U/mL, KKO 20 μg/mL, luciferase readout after 6 hours; for inhibition of FcγRIIA-dependent cellular activation (in words): activation by KKO, dose-response, FIG. 1C
T1 construct: platelet factor 4 which is a 70 amino acid, lysine-rich, 7.8 kDa platelet-specific protein; made in house; host or cells: Drosophila Schneider 2 (S2) cells
T1 sequence (P02776 32-101): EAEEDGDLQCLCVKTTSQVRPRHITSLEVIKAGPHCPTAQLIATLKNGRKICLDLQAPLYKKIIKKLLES
Description: (§1) DT40 cells (chicken B cells) were cultured in RPMI supplemented with 10% fetal bovine serum, 1% chicken serum (Gibco), 50 μM 13-mercaptoethanol, 2 mM GlutaMAX (Gibco), 100 U/mL penicillin and 100 U/mL streptomycin at 37° C. under 5% CO2. Cells were co-transfected with 5 μg pEF6-FcγRIIA and 20 μg pEF6-NFAT-Luc by electroporation. Positive transformants were selected using blastidicin.
On day following transfection, cells were pelleted by centrifugation and re-suspended at 2×10^6 cells/mL in fresh medium without serum. Cell aliquots (50 μL) were placed into each well of a 96 well plate. To establish basal expression, 50 μL media was added. Further, the cells were also incubated independently with the following: PF4, heparin, RTO antibody, KKO antibody, ULCs alone, ULCs and RTO; ULCs and KKO and IV.3 antibody. Monoclonal antibody IV.3 (an FcγRIIA-blocking antibody) was used in combination with an anti-Fc antibody to activate FcγRIIA bound by IV.3 as a positive control for FcγRIIA signaling. 8 μg/mL of IV.3 was added for 15 minutes at 37° C. under 5% CO2, followed by 50 μL of sheep anti-mouse-IgG secondary antibody at 15 μg/mL to crosslink and activate these receptors. As a positive control for an intact intracellular signaling pathway, phorbol myristate acetate (PMA; 25 ng/mL) with ionomycin (1 μM) was added (not shown).
We then used this assay to measure the inhibitory capacity of the PF4 antagonist compounds described in the concurrently filed related application referenced above. PF4 (10 μg/mL) and various concentrations of potential antagonists were co-incubated for 60 min at 37° C. under 5% CO2 followed by the addition of heparin (0.3 U/mL) for 15 min at 37° C. in 5% CO2. KKO (20 μg/mL) or plasma from patients with serotonin release assay confirmed HIT (1:800 dilution) was then added. 50 μL of each mixture was added to the 96 well plate containing 50 μL of cells at a concentration of 2×10^6 cells/mL in fresh medium without serum. Plates were incubated for 6 hours at 37° C. under 5% CO2, and then frozen at −80° C. To measure activation, cells were thawed and lysed with 5× Passive Lysis Buffer (Promega) for 15 minutes. Luciferase activity was measured on a Berthold MultiLumat LB 9506 Luminometer (10 sec readings) using Promega's Luciferase Assay Reagent following the manufacturer's instructions. In other experiments, PF4 antagonists discussed herein were incubated with PF4 for 5 minutes with the same results.

platelets = experiment: Serotonin release assay with 14C-labeled platelets; assay type: cell-based, human; details: for inhibition of platelet activation by KKO (release of 14C-serotonin): KKO 170 μg/mL, heparin 1.0 U/mL, antagonists 2.5 mM, FIG. 1E
Description: To confirm the results of the novel assay, an independent, orthogonal assessment of activity was performed using a serotonin release assay. Serotonin release assays are described in Hirschman, “The use of platelet serotonin release as a sensitive method for detecting anti-platelet antibodies and a plasma anti-platelet factor in patients with idiopathic thrombocytopenic purpura”, Br. J. Haematol., 24(6):793-802 (1973), and Rauova and Cines, “Heparin-associated thrombocytopenia”, N. Engl. J. Med., 303:788-795 (1980), which are hereby incorporated by reference.
Briefly, platelet rich plasma (PRP) from healthy donors was incubated with 0.5 μL ^14C-5-hydroxytryptamine creatinine sulfate (GE Life Sciences, Piscataway, N.J.) per milliliter of PRP for 20 minutes at 37° C. to produce ^14C-labeled platelets. Serotonin uptake was inhibited by adding […] imipramine (Sigma-Aldrich, St. Louis, Mo.) to the PRP.
The radiolabeled platelets were mixed with KKO (170 μg/mL) or with known platelet-activating HIT plasma in the absence (buffer control) or presence of PF4 antagonist compounds 1, 34, 80, 101, and 96. Assays were performed in the presence of heparin (1.0 U/mL) and in the absence of heparin (background). Negative controls without antibody were studied in parallel. Data are expressed as % maximal release of radioactivity with release by the positive control plasma and 1.0 U/mL heparin defined as 100%.

FcγRIIA = experiment: Activation of DT40 cells transfected with FcγRIIA and a Luc reporter; assay type: cell-based, human; details: FIG. 1A
Description: B cells used in the novel assays of the invention were prepared as follows. NFAT-Luc was kindly provided by Prof Arthur Weiss (Shapiro, “c-rel Regulation of IL-2 gene expression may be mediated through activation of AP-1”, J. Exp. Med., 184(5):1663-1669 (1996), hereby incorporated by reference). The NFAT reporter contains three copies of a composite NFAT-activator protein-1 (AP-1) element from the human interleukin-2 (IL-2) gene promoter, and is activated by binding of NFAT (nuclear factor of activated T-cells). pEF6-FcγRIIA, which contains the human FcγRIIA coding sequence under the control of the human EF-1a promoter, was constructed by cloning a human FcγRIIA IMAGE clone into the multiple cloning site of pEF6c (Invitrogen).
as §1, with “blastidicin. […]” for “blastidicin.”
It was next examined whether FcγRIIA activation was heparin-dependent. To do so, activation by KKO was measured using a constant amount of PF4 and increasing amounts of heparin. […]

- IC50 (PF4): 33 µM
Molecule: CC(=O)C1=C(O)c2cc([N+](=O)[O-])ccc2C1=O [Compound 1]

- IC50 (PF4): 500 µM
- inhibition of FcγRIIA-dependent cellular activation (in words) (PF4): less potent
Molecule: O=C(O)c1ccccc1OP(=O)(O)O [Compound 96]
- inhibition of platelet activation by KKO (release of 14C-serotonin) (platelets): inhibited

Molecule: O=C1CC([PH](=O)O)CO1 (stereo not shown) [Compound 34]
- IC50 (PF4): > 500 µM
- inhibition of FcγRIIA-dependent cellular activation (in words) (PF4): not inhibitory

- inhibition of DT40 activation by human HIT plasma (PF4; HIT plasma 1:800 dilution, similar potency as activation by KKO, FIG. 1D): inhibited
- IC50 (PF4): 100 µM
- inhibition of FcγRIIA-dependent cellular activation (in words) (PF4): complete inhibition
- inhibition of DT40 activation by KKO and patient samples (PF4; antagonist concentration 500 μM, KKO and plasma from three HIT patients, FIG. 1D): completely inhibited
Molecule: CCOC(=O)Cn1c(CCC(=O)O)ccc1-c1ccc(Cl)cc1 [Compound 101]
- inhibition of serotonin release from platelets activated by plasma from patients with HIT (platelets; HIT plasma, several antagonist concentrations, FIG. 1F): inhibited
- inhibition of platelet activation by KKO (release of 14C-serotonin) (platelets): inhibited

- IC50 (PF4): 440 µM
- inhibition of FcγRIIA-dependent cellular activation (in words) (PF4): less potent
Molecule: O=C(O)CCc1ccc(-c2ccc(Cl)cc2)n1CC(=O)O [Compound 80]
- inhibition of platelet activation by KKO (release of 14C-serotonin) (platelets): inhibited

B1: PF4: platelet factor 4, 70 amino acid, lysine-rich 7.8 kDa platelet-specific CXC chemokine protein (protein, UniProt P02776 32-101, looked up)
Platelet factor 4: T1 sequence (P02776 32-101)
- activation of FcγRIIA-expressing DT40 cells, substance added alone (FcγRIIA): did not activate

Reference: patent US20150037821A1, “METHODS OF IDENTIFYING HIT-ANTIBODIES AND PF4 ANTAGONISTS AND CELL LINES FOR USE THEREIN” (THE TRUSTEES OF THE UNIVERSITY OF PENNSYLVANIA, priority 2012, published 2015)
